What was measured:
[1] = tested on: Echinochloa oryzoides (Ard.) Fritsch.; experiment: Preemergence weed control under flooded paddy conditions, ECHORC (Watergrass (Calif.)); format: in vivo; settings: preemergence, flooded paddy; as to herbicidal effect rating, ECHORC: meaning of each grade not given here
Cyperus iria = experiment: Preemergence weed control under flooded paddy conditions, CYPIR (Rice Flatsedge); format: in vivo; settings: preemergence, flooded paddy; as to herbicidal effect rating, CYPIR: meaning of each grade not given here
[2] = tested on: Cyperus serotinus, Rottb.; experiment: Preemergence weed control under flooded paddy conditions, CYPSE (Flatsedge); format: in vivo; settings: preemergence; as to herbicidal effect rating, CYPSE: meaning of each grade not given here
[3] = tested on: Monochoria vaginalis, Presl.; experiment: Preemergence weed control under flooded paddy conditions, MOOVA (Monochoria); format: in vivo; settings: preemergence, flooded paddy; as to herbicidal effect rating, MOOVA: meaning of each grade not given here
Sagittaria pygmaea, L. = experiment: Preemergence weed control under flooded paddy conditions, SAGPY (Arrowhead (Pygmaea)); format: in vivo; settings: preemergence, flooded paddy; as to herbicidal effect rating, SAGPY: meaning of each grade not given here
[4] = tested on: Oryza sativa, (L.) Tebonnet; experiment: Rice tolerance to post-transplant applications under flooded paddy conditions (Example 187), ORYSAT (Rice, Tebonnet); as to herbicidal effect rating ORYSAT: meaning of each grade not given here
[5] = Rate 0.0320 kg/ha, rated 3-4 weeks after treatment
[6] = Rate 0.0620 kg/ha, rated 3-4 weeks after treatment
[7] = Rate 0.1250 kg/ha, rated 3-4 weeks after treatment
[8] = Rate 0.2500 kg/ha, rated 3-4 weeks after treatment
[9] = Rate 0.5000 kg/ha, rated 3-4 weeks after treatment
[10] = 0.0313 kg/ha, rated three to four weeks after treatment
[11] = 0.0625 kg/ha, rated three to four weeks after treatment
[12] = 0.1250 kg/ha, rated three to four weeks after treatment
[13] = 0.2500 kg/ha, rated three to four weeks after treatment
[14] = Rate 0.0313 kg/ha, rated three to four weeks after treatment
[15] = Rate 0.0625 kg/ha, rated three to four weeks after treatment
[16] = Rate 0.1250 kg/ha, rated three to four weeks after treatment
[17] = Rate 0.2500 kg/ha, rated three to four weeks after treatment
[18] = Rate 0.0320 kg/ha, rated three to four weeks after treatment
[19] = Rate 0.0620 kg/ha, rated three to four weeks after treatment

For `Cc1ccc(OCC(=O)C(C)(C)C)c(-c2nsc3ccc(-n4c(=O)cc(C(F)(F)F)n(C)c4=O)cc23)c1` [Example 540, 2,4(1H,3H)-Pyrimidinedione, 3-{3-[6-(3,3-dimethyl-2-oxobutoxy)-m-tolyl]-1,2-benzisothiazol-5-yl}-1-methyl-6-(trifluoromethyl)-], the “herbicidal effect rating, ECHORC” value [1, 5] was 2.3, the “herbicidal effect rating, ECHORC” value [1, 6] was 3.4 and the “herbicidal effect rating, ECHORC” value [1, 7] was 4.7. For the same compound, the “herbicidal effect rating, ECHORC” value [1, 8] was 9.0, the “herbicidal effect rating, ECHORC” value [1, 9] was 9.0 and the “herbicidal effect rating, CYPIR” value (Cyperus iria; [5]) was 6.0. The “herbicidal effect rating, CYPIR” value (Cyperus iria; [6]) was 8.0, the “herbicidal effect rating, CYPIR” value (Cyperus iria; [7]) was 9.0 and the “herbicidal effect rating, CYPIR” value (Cyperus iria; [8]) was 9.0. The “herbicidal effect rating, CYPIR” value (Cyperus iria; [9]) was 9.0, the “herbicidal effect rating, CYPSE” value [2, 5] was 0.0 and the “herbicidal effect rating, CYPSE” value [2, 6] was 0.0. For the same compound, the “herbicidal effect rating, CYPSE” value [2, 7] was 0.0, the “herbicidal effect rating, CYPSE” value [2, 8] was 0.0 and the “herbicidal effect rating, CYPSE” value [2, 9] was 3.0. For the same compound, the “herbicidal effect rating, MOOVA” value [3, 5] was 8.0, the “herbicidal effect rating, MOOVA” value [3, 6] was 9.0 and the “herbicidal effect rating, MOOVA” value [3, 7] was 9.0. For the same compound, the “herbicidal effect rating, MOOVA” value [3, 8] was 9.0, the “herbicidal effect rating, MOOVA” value [3, 9] was 9.0 and the “herbicidal effect rating, SAGPY” value (Sagittaria pygmaea, L.; [5]) was 0.0. For the same compound, the “herbicidal effect rating, SAGPY” value (Sagittaria pygmaea, L.; [6]) was 0.0, the “herbicidal effect rating, SAGPY” value (Sagittaria pygmaea, L.; [7]) was 0.0 and the “herbicidal effect rating, SAGPY” value (Sagittaria pygmaea, L.; [8]) was 0.0. For the same compound, the “herbicidal effect rating, SAGPY” value (Sagittaria pygmaea, L.; [9]) was 0.0, the “herbicidal effect rating ORYSAT” value [4, 5] was 0.0 and the “herbicidal effect rating ORYSAT” value [4, 6] was 0.0. For the same compound, the “herbicidal effect rating ORYSAT” value [4, 7] was 0.0, the “herbicidal effect rating ORYSAT” value [4, 8] was 1.0 and the “herbicidal effect rating ORYSAT” value [4, 9] was 3.0.
For `COC(=O)COc1noc2ccc(-n3c(=O)cc(C(F)(F)F)n(C)c3=O)cc12` [Example 22, Methyl {{5-[3,6-dihydro-3-methyl-2,6-dioxo-4-(trifluoromethyl)-1(2H)-pyrimidinyl]-1,2-benzisoxazol-3-yl}oxy}acetate], the “herbicidal effect rating, ECHORC” value [1, 10] was 9.0, the “herbicidal effect rating, ECHORC” value [1, 11] was 9.0 and the “herbicidal effect rating, ECHORC” value [1, 12] was 9.0. The “herbicidal effect rating, ECHORC” value [1, 13] was 9.0, the “herbicidal effect rating, CYPIR” value (Cyperus iria; [10]) was 9.0 and the “herbicidal effect rating, CYPIR” value (Cyperus iria; [11]) was 9.0. For the same compound, the “herbicidal effect rating, CYPIR” value (Cyperus iria; [12]) was 9.0, the “herbicidal effect rating, CYPIR” value (Cyperus iria; [13]) was 9.0 and the “herbicidal effect rating, CYPSE” value [2, 10] was 2.0. For the same compound, the “herbicidal effect rating, CYPSE” value [2, 11] was 7.0, the “herbicidal effect rating, CYPSE” value [2, 12] was 7.0 and the “herbicidal effect rating, CYPSE” value [2, 13] was 9.0. For the same compound, the “herbicidal effect rating, MOOVA” value [3, 10] was 9.0, the “herbicidal effect rating, MOOVA” value [3, 11] was 9.0 and the “herbicidal effect rating, MOOVA” value [3, 12] was 9.0. The “herbicidal effect rating, MOOVA” value [3, 13] was 9.0, the “herbicidal effect rating, SAGPY” value (Sagittaria pygmaea, L.; [10]) was 0.0 and the “herbicidal effect rating, SAGPY” value (Sagittaria pygmaea, L.; [11]) was 2.0. For the same compound, the “herbicidal effect rating, SAGPY” value (Sagittaria pygmaea, L.; [12]) was 4.0, the “herbicidal effect rating, SAGPY” value (Sagittaria pygmaea, L.; [13]) was 9.0 and the “herbicidal effect rating, ORYSAT (rice tolerance)” value (from here on “herbicidal effect rating, ORYSAT”) [4, 10] was 2.0. The “herbicidal effect rating, ORYSAT” value [4, 11] was 2.0, the “herbicidal effect rating, ORYSAT” value [4, 12] was 2.5 and the “herbicidal effect rating, ORYSAT” value [4, 13] was 2.5.
`C=CCOc1nc(C(F)(F)F)cc(=O)n1-c1ccc2snc(-c3cc(C)ccc3OC)c2c1` [Example 245, 2-(Allyloxy)-3-[3-(6-methoxy-m-tolyl)-1,2-benzisothiazol-5-yl]-6-(trifluoromethyl)-4(3H)-pyrimidinone] was tested, and the “ECHORC herbicidal effect rating” value [1, 14] was 0.0, the “ECHORC herbicidal effect rating” value [1, 15] was 0.0 and the “ECHORC herbicidal effect rating” value [1, 16] was 0.0. The “ECHORC herbicidal effect rating” value [1, 17] was 0.0, the “CYPIR herbicidal effect rating” value (Cyperus iria; [14]) was 0.0 and the “CYPIR herbicidal effect rating” value (Cyperus iria; [15]) was 0.0. For the same compound, the “CYPIR herbicidal effect rating” value (Cyperus iria; [16]) was 0.0, the “CYPIR herbicidal effect rating” value (Cyperus iria; [17]) was 0.0 and the “CYPSE herbicidal effect rating” value [2, 14] was 0.0. The “CYPSE herbicidal effect rating” value [2, 15] was 0.0, the “CYPSE herbicidal effect rating” value [2, 16] was 0.0 and the “CYPSE herbicidal effect rating” value [2, 17] was 0.0. The “MOOVA herbicidal effect rating” value [3, 14] was 0.0, the “MOOVA herbicidal effect rating” value [3, 15] was 0.0 and the “MOOVA herbicidal effect rating” value [3, 16] was 0.0. For the same compound, the “MOOVA herbicidal effect rating” value [3, 17] was 0.0, the “SAGPY herbicidal effect rating” value (Sagittaria pygmaea, L.; [14]) was 0.0 and the “SAGPY herbicidal effect rating” value (Sagittaria pygmaea, L.; [15]) was 0.0. For the same compound, the “SAGPY herbicidal effect rating” value (Sagittaria pygmaea, L.; [16]) was 0.0, the “SAGPY herbicidal effect rating” value (Sagittaria pygmaea, L.; [17]) was 0.0 and the “ORYSAT herbicidal effect rating” value [4, 14] was 0.0. For the same compound, the “ORYSAT herbicidal effect rating” value [4, 15] was 0.0, the “ORYSAT herbicidal effect rating” value [4, 16] was 0.0 and the “ORYSAT herbicidal effect rating” value [4, 17] was 0.0.
`Cn1c(C(F)(F)F)cc(=O)n(-c2ccc3snc(C(C#N)=Cc4ccncc4)c3c2)c1=O` [Example 596, 1,2-Benzisothiazole-3-acetonitrile, 5-[3,6-dihydro-3-methyl-2,6-dioxo-4-(trifluoromethyl)-1(2H)-pyrimidinyl]-alpha-(4-pyridylmethylene)-] was tested, and the “herbicidal effect rating, ECHORC” value [1, 18] was 0.0, the “herbicidal effect rating, ECHORC” value [1, 19] was 4.0 and the “herbicidal effect rating, ECHORC” value [1, 16] was 5.0. The “herbicidal effect rating, ECHORC” value [1, 17] was 7.0, the “herbicidal effect rating, CYPIR” value (Cyperus iria; [18]) was 0.0 and the “herbicidal effect rating, CYPIR” value (Cyperus iria; [19]) was 0.0. For the same compound, the “herbicidal effect rating, CYPIR” value (Cyperus iria; [16]) was 0.0, the “herbicidal effect rating, CYPIR” value (Cyperus iria; [17]) was 0.0 and the “herbicidal effect rating, CYPSE” value [2, 18] was 0.0. For the same compound, the “herbicidal effect rating, CYPSE” value [2, 19] was 0.0, the “herbicidal effect rating, CYPSE” value [2, 16] was 0.0 and the “herbicidal effect rating, CYPSE” value [2, 17] was 0.0. For the same compound, the “herbicidal effect rating, MOOVA” value [3, 18] was 3.0, the “herbicidal effect rating, MOOVA” value [3, 19] was 4.0 and the “herbicidal effect rating, MOOVA” value [3, 16] was 7.0. For the same compound, the “herbicidal effect rating, MOOVA” value [3, 17] was 9.0, the “herbicidal effect rating, SAGPY” value (Sagittaria pygmaea, L.; [18]) was 0.0 and the “herbicidal effect rating, SAGPY” value (Sagittaria pygmaea, L.; [19]) was 0.0. For the same compound, the “herbicidal effect rating, SAGPY” value (Sagittaria pygmaea, L.; [16]) was 2.0, the “herbicidal effect rating, SAGPY” value (Sagittaria pygmaea, L.; [17]) was 6.0 and the “herbicidal effect rating ORYSAT” value [4, 18] was 0.0. The “herbicidal effect rating ORYSAT” value [4, 19] was 3.0, the “herbicidal effect rating ORYSAT” value [4, 16] was 4.0 and the “herbicidal effect rating ORYSAT” value [4, 17] was 6.0.

From patent publication EP0908457B1, “3-(1,2-benzisothiazol- and isoxazol-5-Y1)-2,4(1H,3H)-pyrimidinedione or thione and 3-(1,2-benzisothiazol- and isoxazol-5-y1)-4(3H)-pyrimidinone or thione herbicidal agents” (BASF AKTIENGESELLSCHAFT, priority 1997, dated 1999)
